Experiments:
[1] = molecular target: PARP1 (Homo sapiens, UniProt P09874); test: Inhibition of PARP1 enzyme activity (ELISA, chemiluminescence); format: biochemical; details: for IC50: ELISA, histone-coated plate, NAD+, 60 min at 25 °C; for Selectivity PARP2/PARP1: ratio of PARP2 IC50 to PARP1 IC50
[2] = tested on: DLD-1 BRCA2(-/-) cells; test: Inhibition of proliferation of DLD-1 BRCA2(-/-) cells (CTG method); format: cell-based; details: Homo sapiens, DLD-1, 168 h; 7 days incubation, CellTiter-Glo
Method: • 1. Cell Pretreatment: DLD-1 BRCA2(-/-) cells were cultured in growth medium 1640 + 10% FBS (fetal bovine serum) + 1% Penicillin-Streptomycin. Cells in the logarithmic growth phase were digested with trypsin-EDTA, centrifuged, and resuspended. DLD-1 BRCA2(-/-) cells were seeded at 1,000 cells/well in sterile 96-well opaque plates, 75 µl per well. After seeding, the cell culture plates were incubated overnight at 37 °C with 5% CO2 before adhesion, followed by treatment with the test compounds. • 2. DLD-1 BRCA2(-/-) Cell Drug Treatment: The test compound was prepared as a 10 mM stock solution using DMSO. The test compound was then diluted to a 4× working solution using growth medium (starting at 40 µM, with 9 4-fold dilutions). 25 µl of 4× working solution was added to each well to achieve final concentrations of 10000, 2500, 625, 156, 39, 9.7, 2.4, 0.61, and 0.152 nM, respectively. Blank control wells containing the same DMSO concentration were also included, with three replicates for each concentration. After adding the test compound, the cells were incubated at 37 °C with 5% CO2 for 7 days. • 3. After incubation, 100 µl of CellTiter-Glo® Reagent was added to each well, and […] intensity was measured. A curve was fitted using GraphPad software, and the IC50 value for cell proliferation inhibition was calculated.

[3] = tested on: MDA-MB-436 cells; test: Inhibition of proliferation of MDA-MB-436 cells (CellTiter-Glo); format: cell-based; details: Homo sapiens, MDA-MB-436, 168 h, 7 days incubation
Method: • 1. Cell Pretreatment: MDA-MB-436 cells were cultured in DMEM + 10% FBS + 1% penicillin-dip antibiotics + 1% ITS + 16 µg/ml glutathione. Cells in the logarithmic growth phase were digested with trypsin-EDTA, centrifuged and resuspended, and then seeded at a rate of 500-1000 cells/well in sterile 96-well opaque plates, 90 µl per well. After seeding, the cell culture plates were incubated overnight at 37°C with 5% CO2 before drug treatment. • 2. Drug treatment of MDA-MB-436 cells: The test compound was prepared as a 10 mM stock solution using DMSO. The drug was then diluted to a 10× working solution using growth medium (the compound was started at 100 µM and diluted 4-fold to achieve 9 concentrations). 10 µl of the 10× working solution was added to each well to achieve final drug concentrations of 10000, 2500, 625, 156, 39, 9.7, 2.4, 0.61, and 0.152 nM, respectively. Blank control wells containing the same DMSO concentration were also included, with three replicates for each concentration. After drug addition, the cells were incubated at 37°C with 5% CO2 for 7 days. • 3. After incubation, 100 µl of CellTiter-Glo® Reagent was added to each well, and luminescence was measured. The IC50 value of cell proliferation inhibition was calculated using GraphPad software to fit the curve. Table E: Results of the inhibitory effect of the compound of this invention on the proliferation of MDA-MB-436 cells.

[4] = molecular target: PARP2 (Homo sapiens, UniProt Q9UGN5); test: biochemical;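 note: PARP2 enzyme ELISA on histone-coated plates, Strep-HRP detection with chemiluminescence read-out, 10 min compound preincubation with enzyme, inhibition scaled between Max and Min signal controls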
[5] = Pharmacokinetics in mice after intravenous injection or gavage; details: BALB/c, mouse, plasma
Method: The compounds of the present invention were administered to test animals in the form of 5% DMSO + 30% PEG400 + 65% physiological saline, 10% DMSO + 10% Kolliphor HS15 + 80% Saline, 10% DMSO + 89% (25% SBE-B-CD) + (2% HCl), 20% PEG400 + 80% sterile water for injection, or 10% DMA+ 10% HS15 + 30% PEG400 + 50% sterile aqueous solution for injection. Animals were fasted for 12 hours before administration but had free access to water. For the intravenous administration group, the dose was 1 mg/kg. Blood samples (approximately 0.15 mL) were collected intravenously at the following time points after administration: 0.083, 0.25, 0.5, 1.0, 2.0, 4.0, 6.0, 8.0 and 24 h (dogs) or 0.083, 0.25, 0.5, 1.0, 2.0, 5.0, 7.0 and 24 h (mice and rats) or 0.083, 0.25, 0.5, 1.0, 2.0, 6.0, 8.0 and 24 h (monkeys). EDTA-K2 was pre-added to the blood collection tube as an anticoagulant. The blood samples were centrifuged at 12,000 rpm for 2 minutes, and plasma was collected and stored at -20 °C or - 70 °C. For the gavage administration group, the dosage was 1 mg/kg (mice, dogs, and monkeys) or 5 mg/kg (rats). After administration, venous blood samples (approximately 0.15 mL) were collected at the following time points: 0.25, 0.5, 1.0, 2.0, 4.0, 6.0, 8.0, and 24 h (dogs) or 0.25, 0.5, 1.0, 2.0, 5.0, 7.0, and 24 h (mice and rats) or 0.25, 0.5, 1.0, 2.0, 6.0, 8.0, and 24 h (monkeys). EDTA-K2 was pre-added to the blood collection tube as an anticoagulant. The blood samples were centrifuged at 12,000 rpm for 2 minutes, and plasma was collected and stored at -20 °C or -70 °C.
The collected plasma samples were processed (frozen plasma was thawed at room temperature, vortexed for 15 s to mix, 10-20 µL of plasma was taken, 120-150 µL of acetonitrile solution containing internal standard was added, vortexed for 5 min to mix, centrifuged at 4,000 rpm for 5 min, 100 µL of supernatant was taken, and 120-150 Ml/water (v/v = 1/1) was added and mixed). The concentration of compounds in the plasma was then analyzed by LC-MS/MS.

PARP1, sequence (P09874 whole entry): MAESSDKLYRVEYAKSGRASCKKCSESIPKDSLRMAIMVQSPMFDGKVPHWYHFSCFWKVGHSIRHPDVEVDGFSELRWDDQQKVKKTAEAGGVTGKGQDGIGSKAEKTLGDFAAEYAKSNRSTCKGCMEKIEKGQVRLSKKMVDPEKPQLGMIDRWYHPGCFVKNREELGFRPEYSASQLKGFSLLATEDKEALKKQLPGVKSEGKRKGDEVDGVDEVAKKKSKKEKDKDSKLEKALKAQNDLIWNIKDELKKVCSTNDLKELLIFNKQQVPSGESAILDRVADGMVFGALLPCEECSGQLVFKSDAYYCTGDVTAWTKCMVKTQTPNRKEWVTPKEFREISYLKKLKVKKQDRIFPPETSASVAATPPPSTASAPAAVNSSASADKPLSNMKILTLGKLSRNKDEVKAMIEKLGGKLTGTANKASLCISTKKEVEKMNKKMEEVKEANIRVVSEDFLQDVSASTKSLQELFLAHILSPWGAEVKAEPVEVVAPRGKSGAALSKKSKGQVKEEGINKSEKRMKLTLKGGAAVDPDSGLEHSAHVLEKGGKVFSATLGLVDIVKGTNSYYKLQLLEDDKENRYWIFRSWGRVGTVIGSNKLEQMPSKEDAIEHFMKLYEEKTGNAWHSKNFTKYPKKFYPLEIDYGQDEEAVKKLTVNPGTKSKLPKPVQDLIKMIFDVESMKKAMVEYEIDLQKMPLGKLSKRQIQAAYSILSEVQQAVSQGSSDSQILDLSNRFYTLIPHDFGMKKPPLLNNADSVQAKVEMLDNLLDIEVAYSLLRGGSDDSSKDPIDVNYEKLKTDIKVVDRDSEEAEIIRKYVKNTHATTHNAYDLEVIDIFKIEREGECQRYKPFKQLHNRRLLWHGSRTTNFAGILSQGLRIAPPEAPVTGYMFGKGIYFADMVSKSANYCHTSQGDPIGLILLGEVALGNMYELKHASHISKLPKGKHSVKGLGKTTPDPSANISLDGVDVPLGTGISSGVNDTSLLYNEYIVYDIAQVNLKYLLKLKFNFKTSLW
PARP2, sequence (Q9UGN5 whole entry): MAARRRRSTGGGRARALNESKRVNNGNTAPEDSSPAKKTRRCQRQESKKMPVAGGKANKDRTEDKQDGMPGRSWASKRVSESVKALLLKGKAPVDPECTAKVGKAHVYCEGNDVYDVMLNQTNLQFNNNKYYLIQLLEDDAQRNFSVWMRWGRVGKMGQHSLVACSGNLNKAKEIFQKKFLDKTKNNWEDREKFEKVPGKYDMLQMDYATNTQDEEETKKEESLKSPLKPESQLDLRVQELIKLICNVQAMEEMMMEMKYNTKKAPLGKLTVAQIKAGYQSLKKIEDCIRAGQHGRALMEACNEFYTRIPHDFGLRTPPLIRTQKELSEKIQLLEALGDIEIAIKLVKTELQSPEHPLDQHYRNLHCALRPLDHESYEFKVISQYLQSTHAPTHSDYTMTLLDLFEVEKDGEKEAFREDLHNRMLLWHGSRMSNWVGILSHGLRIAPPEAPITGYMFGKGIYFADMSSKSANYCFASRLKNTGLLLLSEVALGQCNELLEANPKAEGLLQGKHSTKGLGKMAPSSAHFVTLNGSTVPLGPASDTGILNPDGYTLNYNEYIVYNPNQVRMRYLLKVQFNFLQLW

| SMILES | IC50 [1] [nM] | Selectivity PARP2/PARP1 [1] | IC50 [2] [nM] | IC50 [3] [nM] | IC50 [4] [nM] | further results |
| --- | --- | --- | --- | --- | --- | --- |
| CNC(=O)c1ccc(N2CCN(Cc3cc(Oc4ccc(F)cc4)c4nc(C)c(=O)[nH]c4c3)CC2)c(F)n1 [Example 6, 6-fluoro-5-(4-((8-(4-fluorophenoxy)-2-methyl-3-oxo-3,4-dihydroquinoxalin-6-yl)methyl)piperazin-1-yl)-N-methylpicolinamide] | 1.2 | 700.1 | 14.5 | 6.8 | 839 | – |
| CNC(=O)c1ccc(N2CCN(Cc3cc(-c4ccccc4F)c4nc(C)c(=O)[nH]c4c3)CC2)c(F)n1 [Example 8, 6-fluoro-5-(4-((8-(2-fluorophenyl)-2-methyl-3-oxo-3,4-dihydroquinoxalin-6-yl)methyl)piperazin-1-yl)-N-methylpicolinamide] | 4.1 | 657.2 | 32.2 | 23.6 | 2690 | – |
| CNC(=O)c1ccc(N2CCN(Cc3cc(-c4cccnc4)c4nc(C)c(=O)[nH]c4c3)CC2)c(F)n1 [Example 11, 6-fluoro-N-methyl-5-(4-((2-methyl-3-oxo-8-(pyridin-3-yl)-3,4-dihydroquinoxalin-6-yl)methyl)piperazin-1-yl)picolinamide] | 3.01 | 224.6 | 12.9 | 10.7 | 676 | – |
| CNC(=O)c1ccc(C2=CCN(Cc3cc(OC(F)F)c4nc(C)c(=O)[nH]c4c3F)CC2)c(F)n1 [Example 16, 1'-((8-(difluoromethoxy)-5-fluoro-2-methyl-3-oxo-3,4-dihydroquinoxalin-6-yl)methyl)-2-fluoro-N-methyl-1',2',3',6'-tetrahydro-[3,4'-bipyridine]-6-carboxamide] | 2.8 | >3625 | – | 6.2 | > 10000 | – |
| CNC(=O)c1ccc(N2CCN(Cc3cc(OC4CC(F)(F)C4)c4nc(C)c(=O)[nH]c4c3)CC2)c(F)n1 [Example 18, 5-(4-((8-(3,3-difluorocyclobutoxy)-2-methyl-3-oxo-3,4-dihydroquinoxalin-6-yl)methyl)piperazin-1-yl)-6-fluoro-N-methylpicolinamide] | 1.7 | 54.7 | 7.9 | 0.9 | 93.3 | – |
| CC#Cc1cc(CN2CCN(c3ccc(C(=O)NC)nc3C)CC2)cc2[nH]c(=O)c(C)nc12 [Example 38, N,6-dimethyl-5-(4-((2-methyl-3-oxo-8-(prop-1-yn-1-yl)-3,4-dihydroquinoxalin-6-yl)methyl)piperazin-1-yl)picolinamide] | – | – | 15.1 | 5 | – | – |
| CNC(=O)c1ccc(N2CCN(Cc3cc(C#Cc4ccccc4)c4nc(C)c(=O)[nH]c4c3F)CC2)c(F)n1 [Example 53, 6-fluoro-5-(4-((5-fluoro-2-methyl-3-oxo-8-(phenylethynyl)-3,4-dihydroquinoxalin-6-yl)methyl)piperazin-1-yl)-N-methylpicolinamide] | – | – | 963 | 3940 | – | – |
| CNC(=O)c1ccc(N2CCN(Cc3cc(-c4ccnn4C)c4nc(C)c(=O)[nH]c4c3)CC2)c(F)n1 [Example 68, 6-fluoro-N-methyl-5-(4-((2-methyl-8-(1-methyl-1H-pyrazol-5-yl)-3-oxo-3,4-dihydroquinoxalin-6-yl)methyl)piperazin-1-yl)picolinamide] | – | – | 33.3 | 35.6 | – | – |
| CNC(=O)c1ccc(N2CCN(Cc3cc(-c4ccc(OC)cc4)c4nc(C)c(=O)[nH]c4c3)CC2)c(F)n1 [Example 69, 6-fluoro-5-(4-((8-(4-methoxyphenyl)-2-methyl-3-oxo-3,4-dihydroquinoxalin-6-yl)methyl)piperazin-1-yl)-N-methylpyridine amide] | 3.2 | 2751.7 | 32.6 | – | 8820 | – |
| CNC(=O)c1ccc(N2CCN(Cc3cc(-c4cnn(C)c4)c4nc(C)c(=O)[nH]c4c3)CC2)c(F)n1 [Example 70, 6-fluoro-N-methyl-5-(4-((2-methyl-8-(1-methyl-1H-pyrazol-4-yl)-3-oxo-3,4-dihydroquinoxalin-6-yl)methyl)piperazin-1-yl)picolinamide] | – | – | 14.2 | 13.9 | – | – |

Now from value to molecule, other results behind:

| IC50 [1] [nM] | Selectivity PARP2/PARP1 [1] | IC50 [2] [nM] | IC50 [3] [nM] | IC50 [4] [nM] | SMILES | further results |
| --- | --- | --- | --- | --- | --- | --- |
| 1.84 | 968.5 | 4.7 | 5.3 | 1780 | CNC(=O)c1ccc(N2CCN(Cc3cc(Oc4ccccc4)c4nc(C)c(=O)[nH]c4c3)CC2)c(F)n1 [Example 4, 6-fluoro-N-methyl-5-(4-((2-methyl-3-oxo-8-phenoxy-3,4-dihydroquinoxalin-6-yl)methyl)piperazin-1-yl)picolinamide] | – |
| – | – | 6.1 | < 0.038 | – | CNC(=O)c1ccc(N2CCN(Cc3cc(Nc4ccccc4)c4nc(C)c(=O)[nH]c4c3)CC2)c(F)n1 [Example 5, 6-fluoro-N-methyl-5-(4-((2-methyl-3-oxo-8-(phenylamino)-3,4-dihydroquinoxalin-6-yl)methyl)piperazin-1-yl)picolinamide] | – |
| 1.61 | 705.3 | 11.1 | 8.1 | 1140 | CNC(=O)c1ccc(N2CCN(Cc3cc(-c4cccc(F)c4)c4nc(C)c(=O)[nH]c4c3)CC2)c(F)n1 [Example 9, 6-fluoro-5-(4-((8-(3-fluorophenyl)-2-methyl-3-oxo-3,4-dihydroquinoxalin-6-yl)methyl)piperazin-1-yl)-N-methylpicolinamide] | – |
| – | – | 7.5 | 1.7 | – | CNC(=O)c1ccc(N2CCN(Cc3cc(-c4ccc(F)cc4)c4nc(C)c(=O)[nH]c4c3)CC2)c(F)n1 [Example 10, 6-fluoro-5-(4-((8-(4-fluorophenyl)-2-methyl-3-oxo-3,4-dihydroquinoxalin-6-yl)methyl)piperazin-1-yl)-N-methylpicolinamide] | – |
| 27.7 | 348.3 | 9.3 | – | 9660 | CNC(=O)c1ccc(N2CCN(Cc3cc(OC(F)F)c4nc(C)c(=O)[nH]c4c3F)CC2)c(F)n1 [Example 14, 5-(4-((8-(difluoromethoxy)-5-fluoro-2-methyl-3-oxo-3,4-dihydroquinoxalin-6-yl)methyl)piperazin-1-yl)-6-fluoro-N-methylpicolinamide] | AUC(0-t) ([5]; iv, 2 mg/kg): 4680 ng·h/mL; Cmax ([5]; iv, 2 mg/kg): 2080 ng/mL; half-life ([5]; iv, 2 mg/kg): 3.3 h; AUC(0-t) ([5]; po, 5 mg/kg): 16200 ng·h/mL; Cmax ([5]; po, 5 mg/kg): 3830 ng/mL; half-life ([5]; po, 5 mg/kg): 3.3 h |
| 0.7 | 107.3 | 1.5 | 4.2 | 70 | CNC(=O)c1ccc(N2CCN(Cc3cc(C4CC4)c4nc(C)c(=O)[nH]c4c3F)CC2)c(F)n1 [Example 19, 5-(4-((8-cyclopropyl-5-fluoro-2-methyl-3-oxo-3,4-dihydroquinoxalin-6-yl)methyl)piperazin-1-yl)-6-fluoro-N-methylpicolinamide] | – |
| – | – | 1.3 | 3.5 | – | C=Cc1cc(CN2CCN(c3ccc(C(=O)NC)nc3F)CC2)cc2[nH]c(=O)c(C)nc12 [Example 25, 6-fluoro-N-methyl-5-(4-((2-methyl-3-oxo-8-vinyl-3,4-dihydroquinoxalin-6-yl)methyl)piperazin-1-yl)picolinamide] | – |
| – | – | 8.3 | 14.7 | – | CNC(=O)c1ccc(N2CCN(Cc3cc(OC(F)F)c4nc(C(F)F)c(=O)[nH]c4c3)CC2)c(F)n1 [Example 56, 5-(4-((8-(difluoromethoxy)-2-(difluoromethyl)-3-oxo-3,4-dihydroquinoxalin-6-yl)methyl)piperazin-1-yl)-6-fluoro-N-methylpicolinamide] | – |
| – | – | 8.59 | 20.3 | – | Cc1nc2c(OC(F)F)cc(CN3CCN(c4ccc(C(=O)NC5CC5)nc4F)CC3)c(F)c2[nH]c1=O [Example 61, N-cyclopropyl-5-(4-((8-(difluoromethoxy)-5-fluoro-2-methyl-3-oxo-3,4-dihydroquinoxalin-6-yl)methyl)piperazin-1-yl)-6-fluoropicolinamide] | – |

From patent EP4755880A1, “SUBSTITUTED NITROGEN-CONTAINING BICYCLIC COMPOUND AND USE THEREOF” (Sunshine Lake Pharma Co., Ltd., priority 2023, dated 2025)
